Assay [1] deals with T1, Alpha-1B adrenergic receptor (Rattus norvegicus, UniProt P15823).
T1 sequence (P15823 whole entry): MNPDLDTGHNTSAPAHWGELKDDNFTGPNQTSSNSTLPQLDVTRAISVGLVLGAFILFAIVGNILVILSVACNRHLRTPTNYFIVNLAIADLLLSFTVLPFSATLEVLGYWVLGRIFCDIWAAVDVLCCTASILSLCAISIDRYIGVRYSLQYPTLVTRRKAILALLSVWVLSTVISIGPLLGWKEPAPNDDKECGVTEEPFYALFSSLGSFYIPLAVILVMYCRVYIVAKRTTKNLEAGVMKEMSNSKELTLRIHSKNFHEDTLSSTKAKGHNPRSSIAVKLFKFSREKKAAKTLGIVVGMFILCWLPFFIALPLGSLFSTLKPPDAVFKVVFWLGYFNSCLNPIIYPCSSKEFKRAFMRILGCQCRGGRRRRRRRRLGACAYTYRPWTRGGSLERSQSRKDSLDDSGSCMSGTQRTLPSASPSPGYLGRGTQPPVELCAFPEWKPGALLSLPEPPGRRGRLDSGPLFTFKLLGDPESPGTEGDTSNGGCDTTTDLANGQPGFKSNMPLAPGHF
As to the kind of experiment: DRUGMATRIX: Alpha-1B adrenergic receptor radioligand binding (ligand: prazosin). The conditions noted are these: Not Active = under 50% inhibition at 10 µM. It counts as cell membranes, Wistar, Liver, Membrane.

Assay [2] has as its target Aldo-keto reductase family 1 member B1 (Rattus norvegicus, UniProt P07943). It counts as tissue-based, Lens of camera-type eye.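 Note: inhibition of aldose reductase enzyme activity, measured with DL-glyceraldehyde as the substrate; in other assays of this panel Not Active means under 50% inhibition at 10 µM.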
For assay [3], the target named is T2, Vasoactive intestinal polypeptide receptor 1 (Homo sapiens, UniProt P32241). Note: in other assays of this panel Not Active means under 50% inhibition at 10 µM.
T2 sequence (P32241 whole entry): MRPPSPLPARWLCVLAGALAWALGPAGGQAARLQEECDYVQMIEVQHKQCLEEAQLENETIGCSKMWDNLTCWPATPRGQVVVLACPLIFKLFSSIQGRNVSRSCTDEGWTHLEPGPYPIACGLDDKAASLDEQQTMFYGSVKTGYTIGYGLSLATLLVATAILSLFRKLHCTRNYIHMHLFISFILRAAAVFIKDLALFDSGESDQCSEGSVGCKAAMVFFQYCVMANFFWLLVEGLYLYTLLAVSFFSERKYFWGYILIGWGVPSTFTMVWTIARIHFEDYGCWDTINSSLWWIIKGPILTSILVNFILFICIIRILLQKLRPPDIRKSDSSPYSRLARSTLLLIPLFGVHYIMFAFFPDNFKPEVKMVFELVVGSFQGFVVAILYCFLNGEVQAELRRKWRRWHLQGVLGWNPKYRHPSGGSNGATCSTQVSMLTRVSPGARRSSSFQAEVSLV
It is filed as cell membranes, Membrane. As to conditions: ht-29.

The target of a further assay is T3, Endothelin-1 receptor (Homo sapiens, UniProt P25101). Note: in other assays of this panel Not Active means under 50% inhibition at 10 µM.
T3 sequence (P25101 whole entry): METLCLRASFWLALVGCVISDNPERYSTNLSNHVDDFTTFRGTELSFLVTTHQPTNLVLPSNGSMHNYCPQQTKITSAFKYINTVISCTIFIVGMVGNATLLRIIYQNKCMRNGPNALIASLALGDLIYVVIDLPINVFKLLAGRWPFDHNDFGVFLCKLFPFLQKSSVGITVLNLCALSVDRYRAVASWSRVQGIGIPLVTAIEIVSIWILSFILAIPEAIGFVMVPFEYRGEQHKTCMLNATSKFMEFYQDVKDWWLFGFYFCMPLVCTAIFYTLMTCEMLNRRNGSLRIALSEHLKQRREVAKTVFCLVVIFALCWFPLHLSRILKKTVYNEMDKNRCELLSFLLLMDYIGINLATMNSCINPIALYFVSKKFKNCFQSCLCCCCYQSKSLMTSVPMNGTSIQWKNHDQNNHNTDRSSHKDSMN
It is filed as cell membranes, Membrane. As to conditions: cho-k1.

The target in another assay is Melanocortin receptor 3 (Homo sapiens, UniProt P41968). It is filed as cell membranes, Membrane. As to conditions: hek293. Note: in other assays of this panel Not Active means under 50% inhibition at 10 µM.
Assay [4] addresses T4, Neuropeptide Y receptor type 1 (Homo sapiens, UniProt P25929).
T4 sequence (P25929 whole entry): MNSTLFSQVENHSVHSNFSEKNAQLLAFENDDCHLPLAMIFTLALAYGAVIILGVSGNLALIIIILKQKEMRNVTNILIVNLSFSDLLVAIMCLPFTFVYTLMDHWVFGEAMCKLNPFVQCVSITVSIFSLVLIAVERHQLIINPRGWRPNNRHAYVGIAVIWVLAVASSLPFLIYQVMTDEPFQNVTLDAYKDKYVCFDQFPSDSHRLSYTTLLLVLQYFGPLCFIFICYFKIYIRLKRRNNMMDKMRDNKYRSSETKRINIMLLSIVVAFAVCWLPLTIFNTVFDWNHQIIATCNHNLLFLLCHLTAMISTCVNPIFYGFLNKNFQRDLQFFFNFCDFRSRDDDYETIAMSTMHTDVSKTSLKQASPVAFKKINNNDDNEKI
It is filed as cell membranes, Membrane. As to conditions: sk-n-mc.

The target of a further assay is Nitric oxide synthase 1 (Rattus norvegicus, UniProt P29476). It counts as tissue-based, Cerebellum. Note: in other assays of this panel Not Active means under 50% inhibition at 10 µM.
The next assay concerns the target T5, Cathepsin G (Homo sapiens, UniProt P08311).
T5 sequence (P08311 whole entry): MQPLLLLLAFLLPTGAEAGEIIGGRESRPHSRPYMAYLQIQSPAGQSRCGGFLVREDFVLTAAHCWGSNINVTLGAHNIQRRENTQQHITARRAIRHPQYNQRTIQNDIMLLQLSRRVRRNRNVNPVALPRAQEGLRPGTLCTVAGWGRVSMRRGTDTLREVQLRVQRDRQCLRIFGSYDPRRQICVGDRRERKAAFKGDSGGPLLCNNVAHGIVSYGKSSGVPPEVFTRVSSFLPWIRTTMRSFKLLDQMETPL
It counts as tissue-based. As to conditions: neutrophil.

The next assay deals with T6, Interstitial collagenase (Homo sapiens, UniProt P03956).
T6 sequence (P03956 whole entry): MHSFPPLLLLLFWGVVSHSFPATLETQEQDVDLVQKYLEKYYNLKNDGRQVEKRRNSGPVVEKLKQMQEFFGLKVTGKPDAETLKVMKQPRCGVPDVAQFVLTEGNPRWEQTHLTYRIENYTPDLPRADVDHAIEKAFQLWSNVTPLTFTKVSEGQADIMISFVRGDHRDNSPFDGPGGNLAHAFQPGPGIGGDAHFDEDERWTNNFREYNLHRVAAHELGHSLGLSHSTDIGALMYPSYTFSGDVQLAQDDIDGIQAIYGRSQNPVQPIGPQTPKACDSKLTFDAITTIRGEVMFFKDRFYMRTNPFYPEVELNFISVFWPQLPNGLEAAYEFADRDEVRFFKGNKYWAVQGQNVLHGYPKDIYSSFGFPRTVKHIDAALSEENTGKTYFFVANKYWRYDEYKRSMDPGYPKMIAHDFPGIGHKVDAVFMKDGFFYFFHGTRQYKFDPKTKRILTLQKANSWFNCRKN
It counts as tissue-based, Rheumatoid synovial fibroblasts.

Assay [5] deals with Mitogen-activated protein kinase 3 (Homo sapiens, UniProt P27361). The assay can be described thus: DRUGMATRIX: Protein Serine/Threonine Kinase, ERK1 enzyme inhibition (substrate: Myelin Basic Protein). More on the design: species or system Escherichia coli. As to conditions: Not Active = under 50% inhibition at 10 µM.

The term IC50 denotes the concentration that inhibits the measured activity by half. The Ki is a measure of affinity in units of concentration, obtained from inhibition or displacement.

Sequence of Melanocortin receptor 3 (P41968 whole entry): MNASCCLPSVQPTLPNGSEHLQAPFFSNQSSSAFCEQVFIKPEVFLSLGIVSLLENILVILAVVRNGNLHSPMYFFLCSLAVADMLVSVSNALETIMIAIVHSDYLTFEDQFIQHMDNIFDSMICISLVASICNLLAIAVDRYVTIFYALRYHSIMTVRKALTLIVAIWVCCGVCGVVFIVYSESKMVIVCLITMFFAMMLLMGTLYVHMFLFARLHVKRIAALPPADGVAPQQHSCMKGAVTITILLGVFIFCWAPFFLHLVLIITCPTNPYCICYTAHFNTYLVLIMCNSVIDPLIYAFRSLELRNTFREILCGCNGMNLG
Sequence of Nitric oxide synthase 1 (P29476 whole entry): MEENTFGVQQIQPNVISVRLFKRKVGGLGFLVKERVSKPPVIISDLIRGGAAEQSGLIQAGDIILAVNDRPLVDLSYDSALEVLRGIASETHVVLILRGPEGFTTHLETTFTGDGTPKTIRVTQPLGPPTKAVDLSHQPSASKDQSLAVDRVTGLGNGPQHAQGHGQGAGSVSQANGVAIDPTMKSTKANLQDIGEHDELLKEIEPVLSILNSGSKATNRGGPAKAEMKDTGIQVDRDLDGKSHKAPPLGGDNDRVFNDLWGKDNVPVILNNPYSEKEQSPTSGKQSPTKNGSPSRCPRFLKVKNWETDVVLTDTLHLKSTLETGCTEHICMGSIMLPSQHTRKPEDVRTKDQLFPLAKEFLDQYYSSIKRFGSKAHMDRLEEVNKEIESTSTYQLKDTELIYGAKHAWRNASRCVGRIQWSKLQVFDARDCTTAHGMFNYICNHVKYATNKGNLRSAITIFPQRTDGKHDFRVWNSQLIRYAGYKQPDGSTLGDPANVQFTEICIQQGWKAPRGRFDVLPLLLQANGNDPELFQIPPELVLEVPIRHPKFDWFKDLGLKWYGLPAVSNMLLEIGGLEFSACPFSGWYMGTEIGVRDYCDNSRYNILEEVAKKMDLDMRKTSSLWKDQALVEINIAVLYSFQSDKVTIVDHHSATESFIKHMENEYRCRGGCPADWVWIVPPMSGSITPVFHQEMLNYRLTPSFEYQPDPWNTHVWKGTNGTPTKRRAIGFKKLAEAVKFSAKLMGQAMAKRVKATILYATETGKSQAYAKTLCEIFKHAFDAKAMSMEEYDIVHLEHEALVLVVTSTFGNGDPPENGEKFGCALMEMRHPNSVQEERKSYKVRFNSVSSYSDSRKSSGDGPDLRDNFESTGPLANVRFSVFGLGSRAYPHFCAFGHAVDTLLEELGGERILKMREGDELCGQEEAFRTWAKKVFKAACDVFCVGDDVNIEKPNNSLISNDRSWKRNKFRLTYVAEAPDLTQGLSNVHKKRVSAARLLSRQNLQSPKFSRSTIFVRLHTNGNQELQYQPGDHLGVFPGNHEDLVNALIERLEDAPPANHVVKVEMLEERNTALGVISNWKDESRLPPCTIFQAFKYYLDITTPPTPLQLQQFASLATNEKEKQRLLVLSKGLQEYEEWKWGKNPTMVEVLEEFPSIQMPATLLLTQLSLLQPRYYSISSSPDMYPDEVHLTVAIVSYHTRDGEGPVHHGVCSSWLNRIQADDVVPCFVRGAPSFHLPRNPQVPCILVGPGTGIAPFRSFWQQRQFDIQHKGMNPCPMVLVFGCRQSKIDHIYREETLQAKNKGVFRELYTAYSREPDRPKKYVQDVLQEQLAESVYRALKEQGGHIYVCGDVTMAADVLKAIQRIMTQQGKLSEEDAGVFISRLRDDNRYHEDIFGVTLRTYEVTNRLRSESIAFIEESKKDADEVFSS
Sequence of Mitogen-activated protein kinase 3 (P27361 whole entry): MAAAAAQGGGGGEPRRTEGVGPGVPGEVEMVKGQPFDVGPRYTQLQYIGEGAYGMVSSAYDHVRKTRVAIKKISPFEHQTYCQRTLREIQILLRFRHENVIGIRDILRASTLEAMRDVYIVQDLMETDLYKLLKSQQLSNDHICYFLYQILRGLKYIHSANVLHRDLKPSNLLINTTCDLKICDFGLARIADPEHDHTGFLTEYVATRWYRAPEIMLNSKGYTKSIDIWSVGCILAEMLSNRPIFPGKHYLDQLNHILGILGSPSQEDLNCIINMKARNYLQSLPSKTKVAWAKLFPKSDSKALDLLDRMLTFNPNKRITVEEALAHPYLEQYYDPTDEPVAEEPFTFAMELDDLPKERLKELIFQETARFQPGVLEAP

Turning to `CC(=O)OCC(=O)[C@@]1(OC(C)=O)[C@@H](C)C[C@H]2[C@@H]3C[C@H](F)C4=CC(=O)C=C[C@]4(C)[C@@]3(F)[C@@H](O)C[C@@]21C` [DIFLORASONE DIACETATE], the IC50 result (in [1]; in [2]; in assay [3]; against Endothelin-1 receptor; against Melanocortin receptor 3; in [4]) was “Not Active” in each case. Also, the IC50 entry (against Nitric oxide synthase 1; at Cathepsin G; on Interstitial collagenase; in [5]) was “Not Active” in each case.

Turning to `COc1ccc([C@@H]2Sc3ccccc3N(CCN(C)C)C(=O)[C@@H]2OC(C)=O)cc1` [DILTIAZEM], the concentration for half-maximal inhibition (IC50) entry (in [1]; in assay [2]; in [3]; at Endothelin-1 receptor; on Melanocortin receptor 3; in assay [4]) was “Not Active” each time. Besides, the IC50 result (against Nitric oxide synthase 1; against Cathepsin G; on Interstitial collagenase; in assay [5]) was “Not Active” each time.

As to `CCc1ccc(C(=O)C(C)CN2CCCCC2)cc1` (stereo unspecified) [EPERISONE], the IC50 result (in assay [1]; in assay [2]; in assay [3]; at Endothelin-1 receptor; against Melanocortin receptor 3; in assay [4]) was “Not Active” throughout. Further, the IC50 entry (against Nitric oxide synthase 1; at Cathepsin G; at Interstitial collagenase; in [5]) was “Not Active” each time.

Take `C=C1CC[C@H](O)C/C1=C/C=C1\CCC[C@]2(C)[C@@H]([C@H](C)/C=C/[C@H](C)C(C)C)CC[C@@H]12` [ERGOCALCIFEROL]: the IC50 entry (in [1]; in assay [2]; in assay [3]; against Endothelin-1 receptor; on Melanocortin receptor 3; in assay [4]) was “Not Active” throughout. The IC50 entry (at Nitric oxide synthase 1; at Cathepsin G; at Interstitial collagenase; in assay [5]) was “Not Active” throughout.

With `CN1C[C@H](C(=O)N[C@]2(C)O[C@@]3(O)[C@@H]4CCCN4C(=O)[C@H](Cc4ccccc4)N3C2=O)C=C2c3cccc4[nH]cc(c34)C[C@H]21` [ERGOTAMINE], the IC50 in assay [1] (read-out: IC50) was 8.21 nM; in assay [2], “Not Active”; in assay [3], “Not Active”; against Endothelin-1 receptor, “Not Active”; at Melanocortin receptor 3 it was “Not Active”; in [4], “Not Active”. For the same molecule, the concentration for half-maximal inhibition (IC50) result (on Nitric oxide synthase 1; against Cathepsin G; against Interstitial collagenase; in assay [5]) was “Not Active” in each case. In addition, the Ki in assay [1] (read-out: Ki) was 4.55 nM.

Take `CCc1cccc2c3c([nH]c12)C(CC)(CC(=O)O)OCC3` (stereo unspecified) [ETODOLAC]: the IC50 result (in [1]; in assay [2]; in assay [3]; against Endothelin-1 receptor; against Melanocortin receptor 3; in [4]) was “Not Active” in each case. In addition, the IC50 entry (against Nitric oxide synthase 1; at Cathepsin G; against Interstitial collagenase; in assay [5]) was “Not Active” each time.

Regarding `Cc1c(-c2ccccc2)oc2c(C(=O)OCCN3CCCCC3)cccc2c1=O` [FLAVOXATE], the IC50 entry (in [1]; in [2]; in [3]; against Endothelin-1 receptor; at Melanocortin receptor 3; in [4]) was “Not Active” in each case. Also, the IC50 entry (on Nitric oxide synthase 1; against Cathepsin G; on Interstitial collagenase; in assay [5]) was “Not Active” in each case.

With `Nc1nc(=O)[nH]cc1F` [FLUCYTOSINE], the half-maximal inhibitory concentration (IC50) entry (in assay [1]; in [2]; in [3]; against Endothelin-1 receptor; against Melanocortin receptor 3; in [4]) was “Not Active” in each case. In addition, the IC50 result (against Nitric oxide synthase 1; at Cathepsin G; against Interstitial collagenase; in assay [5]) was “Not Active” in each case.

As to `O=C1OC2(c3ccc(O)cc3Oc3cc(O)ccc32)c2ccccc21` [FLUORESCEIN], the IC50 result (in [1]; in [2]; in assay [3]; against Endothelin-1 receptor; on Melanocortin receptor 3; in assay [4]) was “Not Active” each time. The IC50 result (on Nitric oxide synthase 1; on Cathepsin G; on Interstitial collagenase; in [5]) was “Not Active” throughout.

Values taken from ChEMBL document CHEMBL1909046, “DrugMatrix in vitro pharmacology data”.
